Consider six molecules from publication PMC9090410 (Journal of Enzyme Inhibition and Medicinal Chemistry, 2022).

Test [1] concerns HDACs from HeLa cell lysates. It is filed as biochemical. Conditions: for IC50: HeLa cell extract, fluorometric assay, incubating for 8 h, standard deviation in parentheses, read-out: HeLa Cell Lysate IC50. As to the method: (§1) Once prepared, the compounds were screened for inhibition of HDAC activity from the cell lysates of HeLa cells and the recombinant isoforms HDAC3 and HDAC8. […]
(§2) then added followed by further incubation for 10 min at 25 °C. The enzyme activities was measured based on the fluorescence intensity at excitation 350-380 nm and emission 440-480 nm in a plate reader. A control set of data without the presence of inhibitor was acquired using 45 µL of buffer.
(§3) Inhibitors 1-7 were screened using a commercially available In Situ Histone Deacetylase Activity […]
(§4) divergence being the 8 hr incubation time.

Test [2] has as its target T1, Recombinant HDAC 8 (Homo sapiens, UniProt Q9BY41).
T1 construct: purchased not specified (Fisher Scientific, Sigma-Aldrich or Chem-Impex are named for all reagents)
T1 sequence (Q9BY41 1-377): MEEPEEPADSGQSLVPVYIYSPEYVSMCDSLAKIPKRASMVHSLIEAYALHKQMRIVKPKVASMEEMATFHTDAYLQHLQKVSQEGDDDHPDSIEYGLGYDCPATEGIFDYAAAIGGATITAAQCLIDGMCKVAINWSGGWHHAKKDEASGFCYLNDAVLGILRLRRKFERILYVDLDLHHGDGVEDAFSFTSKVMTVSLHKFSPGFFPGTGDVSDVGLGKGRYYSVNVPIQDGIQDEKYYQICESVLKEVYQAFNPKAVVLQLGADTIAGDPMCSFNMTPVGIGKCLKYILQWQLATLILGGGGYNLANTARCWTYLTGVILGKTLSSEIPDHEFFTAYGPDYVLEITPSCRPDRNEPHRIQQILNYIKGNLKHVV
The test is described as follows: Recombinant HDAC8 inhibition, fluorometric assay, 8 h incubation. The conditions noted are these: for IC50: recombinant HDAC8, fluorometric assay, incubating for 8 h, standard deviation in parentheses. It is filed as biochemical. As to the method: as §1, §2, §3, §4

Test [3] has as its target T2, Recombinant HDAC 3 (Homo sapiens, UniProt O15379).
T2 construct: purchased not specified (Fisher Scientific, Sigma-Aldrich or Chem-Impex are named for all reagents)
The test is described as follows: Recombinant HDAC3 inhibition, fluorometric assay, 8 h incubation. Type of test: biochemical. The conditions noted are these: for IC50: recombinant HDAC3, fluorometric assay, incubating for 8 h, standard deviation in parentheses. On the procedure:
as §1, §2, §3, §4

Test [4] concerns HeLa cell lysates. Conditions: 10 h incubation time; ref Kapustin et al. (23); read-out: IC50 Hela cell lysate; cited from earlier work.
[5] abbreviates: time course enzyme inhibition assay, inhibitor at 100 μM.

T2 sequence (O15379 whole entry): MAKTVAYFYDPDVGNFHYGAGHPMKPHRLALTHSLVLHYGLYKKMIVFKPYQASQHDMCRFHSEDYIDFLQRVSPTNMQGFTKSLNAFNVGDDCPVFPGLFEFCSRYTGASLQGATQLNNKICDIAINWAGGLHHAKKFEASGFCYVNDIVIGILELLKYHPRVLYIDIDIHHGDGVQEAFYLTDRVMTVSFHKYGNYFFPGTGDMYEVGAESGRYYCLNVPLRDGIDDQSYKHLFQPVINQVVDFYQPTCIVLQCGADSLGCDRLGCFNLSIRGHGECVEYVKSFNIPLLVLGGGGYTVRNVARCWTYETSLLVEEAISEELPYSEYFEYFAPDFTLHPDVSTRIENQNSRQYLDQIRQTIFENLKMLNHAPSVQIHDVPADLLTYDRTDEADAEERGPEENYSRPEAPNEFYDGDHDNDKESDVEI
T2 sequence (Q9Y618 395-489 partner limits assumed): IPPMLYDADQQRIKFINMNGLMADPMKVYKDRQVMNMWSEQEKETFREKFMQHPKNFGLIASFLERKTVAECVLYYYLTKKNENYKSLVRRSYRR

`O=C(CCCCCNP(=O)(O)O)Nc1ccccc1` [Compound 2]: the half-inhibitory concentration (IC50) in test [1] is 70 µM; in test [2], 129 µM; in test [3] it was 240 µM. For the same molecule, the “Incubation time of optimal inhibition, HeLa cell lysate” value in test [1] (setting [5]) came out at 8 h. Further, the “Incubation time of optimal inhibition, HDAC 8” value in test [2] (setting [5]) came out at 8 h. Also, in test [3] (setting [5]), the “Incubation time of optimal inhibition, HDAC 3” value was 4 h.

On to `O=C(CCCCOP(=O)(O)O)Nc1ccccc1` [Compound 4], for which the IC50 in test [1] came to 2200 µM.

In the case of `O=C(CCCCCOP(=O)(O)O)Nc1ccccc1` [Compound 5], the values for the half-inhibitory concentration (IC50) in test [1], in test [2] and in test [3] were 60 µM, 179 µM and 690 µM, respectively.

With `O=C(CCCCCCOP(=O)(O)O)Nc1ccccc1` [Compound 6], in test [1], the IC50 amounted to 3900 µM.

For `O=C(CCCCCOP(O)(O)=S)Nc1ccccc1` [Compound 7], the 50% inhibitory concentration (IC50) was determined as 50 µM in test [1], 49 µM in test [2] and 103 µM in test [3].

On to `CP(=O)(O)CCCCCC(=O)Nc1ccccc1` [PA3], for which the IC50 in test [4] is 6100 µM.
